Test system: diabetic rats
Experiment: In vivo study after administration in diabetic rats (blood glucose level-time profiles)
Protocol: The effect of insulin-loaded nanoparticles on the blood glucose levels is shown by comparing with that of the S.C. injection of insulin. […] SC injection of the insulin solution produces a sharp decrease in blood glucose level (90% in 2 h), which gradually returns to the basal level at 10 h, whereas the hypoglycemia effect is less significant after oral administration of the enteric-coated capsules which produces a slower but prolonged reduction in blood glucose level. The blood glucose level of the diabetic rats increases slightly during the first 4 hours of the experiment, possibly due to physical stress during handling and blood sampling. The hypoglycemic effect and the pharmacological availability (PA) of the enteric-coated capsule, determined by the dose-corrected AAC0-24h over 24 h relative to SC free-form insulin, as noted in Table 4, are 32.9% and 9.2%, respectively.

insulin [Insulin free-form (SC)]
hypoglycemic effect (FIG. 4): significant hypoglycemic effect
time at which blood glucose returns to the basal level (SC injection): 10 h
decrease in blood glucose level (SC injection, in 2 h): 90%
PA (pharmacological availability) (dose-corrected AAC0-24h relative to SC free-form insulin): 100%
Cmin = minimum relative basal glucose concentration in the blood (mean ± SD, n = 3 per group): 11.72 ± 1.1%
AAC0-24 h (n = 3 per group): 1008 % h
Tmax = time at minimum relative basal glucose concentration in the blood (n = 3 per group): 2 h
Hypoglycemic Effect (over 24 h, n = 3 per group): 35.2%
